Experiment in all cases: relative viability (nuclei count vs DMSO), 5 days (fraction); higher = more cells survive
Compound in experiment [1]: CC1(C)CNc2cc(NC(=O)c3cccnc3NCc3ccncc3)ccc21 [Motesanib] + N=C(N)NC(=N)NCCc1ccccc1 [Phenformin] (partner 250 µM)
In short, it runs like this:
(§1)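 Five library-drug doses in √10 steps were combined with a fixed anchor-drug dose, or a single drug was given alone, by pin tool to lung cancer cell lines in 1536-well plates the day after seeding. Nuclei were stained and counted after 5 days. Relative viability is the nuclei count in treated wells over that in vehicle wells, taken as the median of duplicate plates.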

Compound in experiment [2]: CC1(C)CNc2cc(NC(=O)c3cccnc3NCc3ccncc3)ccc21 [Motesanib] + Cc1nc(NC(=O)N2CCC[C@H]2C(N)=O)sc1-c1ccnc(C(C)(C)C(F)(F)F)c1 [Alpelisib] (partner 2 µM)
In short, it runs like this:
as §1

Compound in experiment [3]: C[C@@]1(C(=O)Nc2ccc(F)nc2)CCCN1c1nc(Nc2cc(C3CC3)n[nH]2)c2cccn2n1 + O=C(CCCCCCC(=O)Nc1ccccc1)NO [Vorinostat] (partner 1 µM)
The procedure, abridged:
as §1

Compound in experiment [4]: CC1(C)CNc2cc(NC(=O)c3cccnc3NCc3ccncc3)ccc21 [Motesanib] + CC(=O)Nc1cccc(-n2c(=O)n(C3CC3)c(=O)c3c(Nc4ccc(I)cc4F)n(C)c(=O)c(C)c32)c1 [Trametinib] (partner 0.02 µM)
The procedure, abridged:
as §1

Turning to NCI-H2347, the relative viability was determined as 0.419 in experiment [1] (first compound 0.01 µM); 0.45 in experiment [1] (first compound 0.03162 µM); 0.372 in experiment [1] (first compound 0.1 µM); 0.502 in experiment [1] (first compound 0.3162 µM); 0.466 in experiment [1] (first compound 1 µM); 1.02 in experiment [2] (first compound 0.01 µM). Also, the relative viability in experiment [2] (first compound 0.03162 µM) came out at 1; in experiment [2] (first compound 0.1 µM) it was 1.14; in experiment [2] (first compound 0.3162 µM), 1.09; in experiment [2] (first compound 1 µM) it was 1.18; in experiment [3] (first compound 0.04 µM), 0.581; in experiment [3] (first compound 0.1265 µM), 0.487. Further, the relative viability in experiment [3] (first compound 0.4 µM) came out at 0.415; in experiment [3] (first compound 1.265 µM), 0.543; in experiment [4] (first compound 0.01 µM), 0.264; in experiment [4] (first compound 0.03162 µM), 0.3; in experiment [4] (first compound 0.1 µM) it was 0.292; in experiment [4] (first compound 0.3162 µM) it was 0.245. The relative viability in experiment [4] (first compound 1 µM) was 0.278.

As for NCI-H2405, the relative viability in experiment [1] (first compound 0.03162 µM) turned out to be 0.265; in experiment [1] (first compound 0.1 µM), 0.404; in experiment [1] (first compound 0.3162 µM), 0.402; in experiment [1] (first compound 1 µM), 0.422; in experiment [2] (first compound 0.03162 µM) it was 0.738; in experiment [2] (first compound 0.1 µM), 0.745. The relative viability in experiment [2] (first compound 0.3162 µM) stood at 0.86; in experiment [2] (first compound 1 µM), 0.942; in experiment [3] (first compound 0.04 µM), 0.959; in experiment [3] (first compound 0.1265 µM) it was 0.889; in experiment [3] (first compound 0.4 µM) it was 0.634; in experiment [3] (first compound 1.265 µM), 0.44. Also, the relative viability turned out to be 0.53 in experiment [4] (first compound 0.01 µM); 0.603 in experiment [4] (first compound 0.03162 µM); 0.625 in experiment [4] (first compound 0.1 µM); 0.684 in experiment [4] (first compound 0.3162 µM); 0.704 in experiment [4] (first compound 1 µM).

As to NCI-H3122, the relative viability in experiment [1] (first compound 0.01 µM) was 0.351; in experiment [1] (first compound 0.03162 µM), 0.338; in experiment [1] (first compound 0.1 µM), 0.409; in experiment [1] (first compound 0.3162 µM), 0.427; in experiment [1] (first compound 1 µM), 0.375; in experiment [2] (first compound 0.01 µM), 0.789. Also, the relative viability was 0.79 in experiment [2] (first compound 0.03162 µM); 0.915 in experiment [2] (first compound 0.1 µM); 0.921 in experiment [2] (first compound 0.3162 µM); 0.946 in experiment [2] (first compound 1 µM); 0.91 in experiment [3] (first compound 0.04 µM); 0.972 in experiment [3] (first compound 0.1265 µM). In addition, the relative viability in experiment [3] (first compound 0.4 µM) came to 0.916; in experiment [3] (first compound 1.265 µM), 0.879; in experiment [4] (first compound 0.01 µM) it was 0.218; in experiment [4] (first compound 0.03162 µM), 0.227; in experiment [4] (first compound 0.1 µM), 0.229; in experiment [4] (first compound 0.3162 µM), 0.211. Besides, in experiment [4] (first compound 1 µM), the relative viability was found to be 0.197.

PC-3 [JPC-3]: the relative viability is 0.482 in experiment [1] (first compound 0.01 µM); 0.478 in experiment [1] (first compound 0.03162 µM); 0.458 in experiment [1] (first compound 0.1 µM); 0.512 in experiment [1] (first compound 0.3162 µM); 0.507 in experiment [1] (first compound 1 µM); 1.09 in experiment [2] (first compound 0.01 µM). Further, the relative viability was determined as 1.03 in experiment [2] (first compound 0.03162 µM); 1.07 in experiment [2] (first compound 0.1 µM); 1.09 in experiment [2] (first compound 0.3162 µM); 1.03 in experiment [2] (first compound 1 µM); 0.717 in experiment [3] (first compound 0.04 µM); 0.718 in experiment [3] (first compound 0.1265 µM). The relative viability in experiment [3] (first compound 0.4 µM) was determined as 0.755; in experiment [3] (first compound 1.265 µM), 0.525; in experiment [4] (first compound 0.01 µM) it was 0.745; in experiment [4] (first compound 0.03162 µM), 0.676; in experiment [4] (first compound 0.1 µM), 0.795; in experiment [4] (first compound 0.3162 µM), 0.779. Further, in experiment [4] (first compound 1 µM), the relative viability is 0.703.

Consider PC-14, for which the relative viability turned out to be 0.471 in experiment [1] (first compound 0.01 µM); 0.53 in experiment [1] (first compound 0.03162 µM); 0.663 in experiment [1] (first compound 0.1 µM); 0.604 in experiment [1] (first compound 0.3162 µM); 0.586 in experiment [1] (first compound 1 µM); 0.958 in experiment [2] (first compound 0.01 µM). For the same cell line, the relative viability in experiment [2] (first compound 0.03162 µM) was 1.03; in experiment [2] (first compound 0.1 µM), 0.998; in experiment [2] (first compound 0.3162 µM) it was 0.931; in experiment [2] (first compound 1 µM), 0.958; in experiment [3] (first compound 0.04 µM) it was 0.792; in experiment [3] (first compound 0.1265 µM), 0.102. The relative viability in experiment [3] (first compound 0.4 µM) was determined as 0.45; in experiment [3] (first compound 1.265 µM), 0.204; in experiment [4] (first compound 0.01 µM), 0.809; in experiment [4] (first compound 0.03162 µM), 0.8; in experiment [4] (first compound 0.1 µM) it was 0.817; in experiment [4] (first compound 0.3162 µM), 0.79. Besides, in experiment [4] (first compound 1 µM), the relative viability was 0.93.

For the origin of these results see the supplement of paper PMC10307832.
